From ChEMBL document CHEMBL1201862, “PubChem BioAssay data set” (2004)
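Cultured in 96-well plates, cells were exposed to test compound for 48 hours across five concentrations. Abbreviation: GI50, concentration required for 50% inhibition of growth.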 Calls of active or inactive are those of the source. No stated cut-off is given here; in the data, active = GI50 up to about 1.1 µM and inactive = higher.

Experiments:
Assay in all cases: NCI-60 cell line screen, 48 h
OVCAR-4 = system: OVCAR-4
OVCAR-3 = system: OVCAR-3
HT-29 = system: HT-29
NCI-H460 = system: NCI-H460
T47D = system: T47D
TK-10 = system: TK-10
NCI-H23 = system: NCI-H23
786-0 = system: 786-0
LOX IMVI = system: LOX IMVI
SW-620 = system: SW-620
UO-31 = system: UO-31
HCT-15 = system: HCT-15
RPMI-8226 = system: RPMI-8226
MDA-MB-231 = system: MDA-MB-231
M14 = system: M14
MCF7 = system: MCF7
MOLT-4 = system: MOLT-4
HL-60 = system: HL-60
HCC 2998 = system: HCC 2998
SK-OV-3 = system: SK-OV-3
A498 = system: A498
SK-MEL-5 = system: SK-MEL-5
SN12C = system: SN12C
BT-549 = system: BT-549
MDA-MB-435 = system: MDA-MB-435
DU-145 = system: DU-145
RXF 393 = system: RXF 393
NCI-H226 = system: NCI-H226
SF-539 = system: SF-539
HOP-62 = system: HOP-62
NCI/ADR-RES = system: NCI/ADR-RES
KM12 = system: KM12
SF-295 = system: SF-295
HOP-92 = system: HOP-92
COLO 205 = system: COLO 205
CCRF-CEM = system: CCRF-CEM
MDA-N = system: MDA-N
UACC-257 = system: UACC-257
ACHN = system: ACHN
UACC-62 = system: UACC-62
OVCAR-8 = system: OVCAR-8
U-251 = system: U-251
NCI-H522 = system: NCI-H522
K562 = system: K562
PC-3 = system: PC-3
SK-MEL-28 = system: SK-MEL-28
EKVX = system: EKVX
HCT-116 = system: HCT-116
IGROV-1 = system: IGROV-1
OVCAR-5 = system: OVCAR-5
A549 = system: A549
SK-MEL-2 = system: SK-MEL-2
CAKI-1 = system: CAKI-1
SNB-75 = system: SNB-75
Hs-578T = system: Hs-578T
SNB-19 = system: SNB-19
SF-268 = system: SF-268
Malme-3M = system: Malme-3M

## CCOC(=O)c1c(CN2CCNCC2)nc2ccccc2c1-c1ccccc1
OVCAR-4
  GI50: 15 µM (inactive)
OVCAR-3
  GI50: 17.5 µM (inactive)
HT-29
  GI50: 5.41 µM (inactive)
NCI-H460
  GI50: 14.3 µM (inactive)
T47D
  GI50: 13.9 µM (inactive)
TK-10
  GI50: 14.3 µM (inactive)
NCI-H23
  GI50: 18.7 µM (inactive)
786-0
  GI50: 12.7 µM (inactive)
LOX IMVI
  GI50: 15.8 µM (inactive)
SW-620
  GI50: 17.1 µM (inactive)
UO-31
  GI50: 7.28 µM (inactive)
HCT-15
  GI50: 16.1 µM
RPMI-8226
  GI50: 14.4 µM (inactive)
MDA-MB-231
  GI50: 15.6 µM (inactive)
M14
  GI50: 13.4 µM (inactive)
MCF7
  GI50: 14.3 µM (inactive)
MOLT-4
  GI50: 10.8 µM (inactive)
HL-60
  GI50: 12.9 µM (inactive)
HCC 2998
  GI50: 1.9 µM (inactive)
SK-OV-3
  GI50: 16.5 µM (inactive)
A498
  GI50: 14.6 µM (inactive)
SK-MEL-5
  GI50: 13.6 µM (inactive)
SN12C
  GI50: 14.7 µM (inactive)
BT-549
  GI50: 17.2 µM (inactive)
MDA-MB-435
  GI50: 14.3 µM (inactive)
DU-145
  GI50: 17.5 µM (inactive)
RXF 393
  GI50: 2.92 µM (inactive)
NCI-H226
  GI50: 18.6 µM (inactive)
SF-539
  GI50: 16.8 µM (inactive)
HOP-62
  GI50: 16.9 µM (inactive)
NCI/ADR-RES
  GI50: 16.2 µM (inactive)
KM12
  GI50: 15.6 µM (inactive)
SF-295
  GI50: 15.1 µM (inactive)
HOP-92
  GI50: 4.69 µM (inactive)
COLO 205
  GI50: 14.3 µM (inactive)
CCRF-CEM
  GI50: 12.7 µM (inactive)
MDA-N
  GI50: 10.9 µM (inactive)
UACC-257
  GI50: 4.07 µM (inactive)
ACHN
  GI50: 16.8 µM (inactive)
UACC-62
  GI50: 15 µM (inactive)
OVCAR-8
  GI50: 15.8 µM (inactive)
U-251
  GI50: 14.3 µM (inactive)
NCI-H522
  GI50: 14.3 µM (inactive)
K562
  GI50: 12.6 µM (inactive)
PC-3
  GI50: 13.4 µM (inactive)
SK-MEL-28
  GI50: 11.7 µM (inactive)
EKVX
  GI50: 15.5 µM (inactive)
HCT-116
  GI50: 11.4 µM (inactive)
IGROV-1
  GI50: 15.3 µM (inactive)
OVCAR-5
  GI50: 16.8 µM (inactive)
A549
  GI50: 16.7 µM (inactive)
SK-MEL-2
  GI50: 15.6 µM (inactive)
CAKI-1
  GI50: 12.2 µM (inactive)
SNB-75
  GI50: 7.03 µM (inactive)
Hs-578T
  GI50: 16.1 µM (inactive)
SNB-19
  GI50: 17.5 µM (inactive)
SF-268
  GI50: 14 µM (inactive)
Malme-3M
  GI50: 10.2 µM (inactive)

## O=C(/C=N/O)Nc1cc(Cl)c(Cl)cc1Cl
OVCAR-4
  GI50: 26.1 µM (inactive)
OVCAR-3
  GI50: 24.4 µM (inactive)
HT-29
  GI50: 36.8 µM (inactive)
NCI-H460
  GI50: 28.4 µM (inactive)
T47D
  GI50: 16.5 µM (inactive)
TK-10
  GI50: 30.4 µM (inactive)
NCI-H23
  GI50: 29.6 µM (inactive)
786-0
  GI50: 37.4 µM (inactive)
LOX IMVI
  GI50: 33.8 µM (inactive)
SW-620
  GI50: 35.7 µM (inactive)
UO-31
  GI50: 41.9 µM (inactive)
HCT-15
  GI50: 31.4 µM
RPMI-8226
  GI50: 27.9 µM (inactive)
MDA-MB-231
  GI50: 25.8 µM (inactive)
M14
  GI50: 34.4 µM (inactive)
MCF7
  GI50: 22.6 µM (inactive)
MOLT-4
  GI50: 15.1 µM (inactive)
HL-60
  GI50: 18.7 µM (inactive)
HCC 2998
  GI50: 26.6 µM (inactive)
SK-OV-3
  GI50: 27.8 µM (inactive)
A498
  GI50: 16.6 µM (inactive)
SK-MEL-5
  GI50: 17.7 µM (inactive)
SN12C
  GI50: 23.9 µM (inactive)
BT-549
  GI50: 27.2 µM (inactive)
MDA-MB-435
  GI50: 23 µM (inactive)
DU-145
  GI50: 31.9 µM (inactive)
RXF 393
  GI50: 31.5 µM (inactive)
SF-539
  GI50: 31.6 µM (inactive)
HOP-62
  GI50: 31.6 µM (inactive)
NCI/ADR-RES
  GI50: 33.9 µM (inactive)
KM12
  GI50: 26.5 µM (inactive)
SF-295
  GI50: 27 µM (inactive)
HOP-92
  GI50: 26.9 µM (inactive)
COLO 205
  GI50: 26.8 µM (inactive)
CCRF-CEM
  GI50: 26.7 µM (inactive)
MDA-N
  GI50: 27.7 µM (inactive)
UACC-257
  GI50: 26.6 µM (inactive)
ACHN
  GI50: 29.9 µM (inactive)
UACC-62
  GI50: 25.9 µM (inactive)
OVCAR-8
  GI50: 23.8 µM (inactive)
U-251
  GI50: 29.2 µM (inactive)
NCI-H522
  GI50: 24.9 µM (inactive)
K562
  GI50: 25.6 µM (inactive)
PC-3
  GI50: 33.2 µM (inactive)
SK-MEL-28
  GI50: 41 µM (inactive)
EKVX
  GI50: 23.2 µM (inactive)
HCT-116
  GI50: 37.1 µM (inactive)
IGROV-1
  GI50: 20.7 µM (inactive)
OVCAR-5
  GI50: 42.1 µM (inactive)
A549
  GI50: 34.5 µM (inactive)
SK-MEL-2
  GI50: 24.9 µM (inactive)
CAKI-1
  GI50: 24.3 µM (inactive)
SNB-75
  GI50: 20.7 µM (inactive)
Hs-578T
  GI50: 29.2 µM (inactive)
SNB-19
  GI50: 50.5 µM (inactive)
SF-268
  GI50: 33.3 µM (inactive)
Malme-3M
  GI50: 35.7 µM (inactive)
